Results from ChEMBL document CHEMBL4613253, “Effective Application of Metabolite Profiling in Drug Design and Discovery” (J Med Chem, 2020).

What was measured:
[1] = Half life in dog liver microsomes at 1 uM measured up to 60 mins by LC-MS/MS analysis; format: ADME, Canis lupus familiaris, Microsome
[2] = Half life in rat liver microsomes at 1 uM measured up to 60 mins by LC-MS/MS analysis; format: ADME, Microsome
[3] = Half life in human liver microsomes at 1 uM measured up to 60 mins by LC-MS/MS analysis; format: ADME, Microsome
[4] = Plasma clearance in Beagle dog at 1 mg/kg, iv measured up to 24 hrs by LC-MS/MS analysis; format: ADME, organism-based, Canis lupus familiaris
[5] = Plasma clearance in Wistar-Han rat at 1 mg/kg, iv measured up to 24 hrs by LC-MS/MS analysis; format: ADME, organism-based
[6] = Half life in human plasma at 1 uM incubated for 0 to 120 mins by LC-MS/MS method; format: ADME, cell-free
[7] = Half life in dog plasma at 1 uM incubated for 0 to 120 mins by LC-MS/MS method; format: ADME, cell-free, Canis lupus familiaris
[8] = Half life in monkey plasma at 1 uM incubated for 0 to 120 mins by LC-MS/MS method; format: ADME, cell-free, Macaca mulatta; settings: rhesus monkey
[9] = target: cGMP-dependent 3',5'-cyclic phosphodiesterase (Homo sapiens, UniProt O00408); assay: Inhibition of PDE2 (unknown origin)
[10] = Oral bioavailability in rat; format: ADME, organism-based; settings: in vivo
[11] = Elimination half life in po or iv dosed rat; format: ADME, organism-based; settings: in vivo, read-out: beta t1/2 (converted)
[12] = Volume of distribution at steady state in po or iv dosed rat; format: ADME, organism-based; settings: in vivo, read-out: Vdss
[13] = target: T1, Glucose-dependent insulinotropic receptor (Homo sapiens, UniProt Q8TDV5); assay: Agonist activity at human GPR119 expressed in HEK293 cells preincubated for 30 mins followed by d2 cAMP addition and measured after 60 mins by HTRF assay; format: functional, cell-based
T1 sequence (Q8TDV5 whole entry): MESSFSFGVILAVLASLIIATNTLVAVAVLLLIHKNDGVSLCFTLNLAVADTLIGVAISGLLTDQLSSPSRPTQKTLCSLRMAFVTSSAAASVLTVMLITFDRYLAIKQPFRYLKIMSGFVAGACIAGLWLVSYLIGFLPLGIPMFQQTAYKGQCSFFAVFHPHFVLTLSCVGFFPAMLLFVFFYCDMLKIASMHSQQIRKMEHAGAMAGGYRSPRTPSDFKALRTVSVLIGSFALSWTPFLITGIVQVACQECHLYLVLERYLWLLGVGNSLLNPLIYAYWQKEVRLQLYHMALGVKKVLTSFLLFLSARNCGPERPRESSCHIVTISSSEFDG

[14] = Plasma clearance in po or iv dosed rat plasma; format: ADME, organism-based
[15] = Half life in rat plasma at 1 uM incubated for 0 to 120 mins by LC-MS/MS method; format: ADME, cell-free
[16] = Half life in guinea pig plasma at 1 uM incubated for 0 to 120 mins by LC-MS/MS method; format: ADME, cell-free, Cavia porcellus
[17] = Protein binding in po or iv dosed rat plasma assessed as free fraction; format: ADME, organism-based
[18] = Drug metabolism in human liver microsomes assessed as peak area for GSH-EE-quinone conjugate formation at 10 uM measured after 60 mins in presence of NADPH by LC-MS/MS analysis; format: ADME, Microsome; settings: 1 h
[19] = AUC(0 to infinity) in human carrying CYP3A5*3/*3 allele at 300 mg, po measured up to 32 hrs; format: ADME, organism-based; design: dose 300 mg, route oral, time infinity; settings: in vivo
[20] = AUC(0 to infinity) in human carrying CYP3A5*1/*3 allele at 300 mg, po measured up to 32 hrs; format: ADME, organism-based; design: dose 300 mg, route oral, time infinity; settings: in vivo
[21] = AUC(0 to infinity) in human carrying CYP3A5*1/*1 allele at 300 mg, po measured up to 32 hrs; format: ADME, organism-based; design: dose 300 mg, route oral, time infinity; settings: in vivo

Chain of cGMP-dependent 3',5'-cyclic phosphodiesterase (O00408 whole entry): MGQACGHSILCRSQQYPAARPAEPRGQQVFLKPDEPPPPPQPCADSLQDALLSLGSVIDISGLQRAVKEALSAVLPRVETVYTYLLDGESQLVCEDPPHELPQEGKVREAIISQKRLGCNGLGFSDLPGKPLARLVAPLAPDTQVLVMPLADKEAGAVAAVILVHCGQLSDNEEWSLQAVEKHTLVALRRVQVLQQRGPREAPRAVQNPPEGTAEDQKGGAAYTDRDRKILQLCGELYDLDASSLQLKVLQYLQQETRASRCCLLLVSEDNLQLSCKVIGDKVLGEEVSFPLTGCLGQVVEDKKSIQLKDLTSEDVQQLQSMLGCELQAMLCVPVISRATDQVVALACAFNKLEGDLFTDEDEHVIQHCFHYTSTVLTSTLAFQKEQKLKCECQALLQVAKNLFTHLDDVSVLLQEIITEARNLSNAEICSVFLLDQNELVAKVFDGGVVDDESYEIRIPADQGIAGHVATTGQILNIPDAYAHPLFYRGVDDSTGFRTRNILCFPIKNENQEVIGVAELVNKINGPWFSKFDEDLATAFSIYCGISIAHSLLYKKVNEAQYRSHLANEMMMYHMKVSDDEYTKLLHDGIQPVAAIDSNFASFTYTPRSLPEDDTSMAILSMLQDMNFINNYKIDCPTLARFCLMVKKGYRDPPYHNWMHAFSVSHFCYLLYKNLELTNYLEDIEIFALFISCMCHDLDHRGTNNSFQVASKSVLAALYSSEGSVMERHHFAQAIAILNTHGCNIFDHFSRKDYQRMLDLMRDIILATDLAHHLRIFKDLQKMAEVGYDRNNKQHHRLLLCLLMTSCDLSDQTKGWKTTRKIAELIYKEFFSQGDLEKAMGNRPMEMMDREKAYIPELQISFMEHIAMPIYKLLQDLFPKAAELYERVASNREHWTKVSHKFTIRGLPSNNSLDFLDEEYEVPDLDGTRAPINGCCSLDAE

COc1ccc(-c2cc(=O)[nH]c(=S)n2CCO)c(OC)c1
half-life at 1 µM [1]: 0.187 h
half-life at 1 µM [2]: 8.6 min
half-life at 1 µM [3]: > 2 h
clearance [4]: 0.72 L/h/kg
clearance [5]: 4.38 L/h/kg

CC(C)OC(=O)N1CCN(c2ncc(-c3ccc4nccnc4c3)cc2C#N)CC1
half-life at 1 µM [6]: > 6.17 h
half-life at 1 µM [7]: > 6.17 h
half-life at 1 µM [8]: > 6.17 h

CCc1ccc(-c2c(-c3nn(C)c4ncnc(N5CC(O)C5)c34)cnn2C)cc1
IC50 [9]: 0.01 µM

CC(O)c1ccc(-c2c(-c3nn(C)c4ncnc(N5CCC5)c34)cnn2C)cc1 (centres undefined)
IC50 [9]: 0.042 µM

Cc1cc(-c2ccc(N3CCC(c4nc(C(C)C)no4)CC3)nc2)c(C#N)cc1C#N
bioavailability [10]: 70%
half-life [11]: 2.6 h
Vd [12]: 3 L/kg
half-life at 1 µM [6]: > 6.17 h
EC50 [13]: 0.0017 µM
clearance [14]: 0.804 L/h/kg
half-life at 1 µM [15]: > 6.17 h
half-life at 1 µM [16]: > 6.17 h
fraction unbound [17]: 0.03

C[C@H](Cc1ccc(F)c(F)c1)n1c(-c2ncccc2O)nc2ccnc(C(F)(F)F)c2c1=O
Activity [18]: 3000

C[C@H](Cc1ccccc1)n1c(-c2ccccc2O)nc2ccnc(C(F)(F)F)c2c1=O
Activity [18]: 166810

Cc1nnc(C(C)C)n1[C@@H]1C[C@H]2CC[C@@H](C1)N2CC[C@H](NC(=O)C1CCC(F)(F)CC1)c1ccccc1 [MARAVIROC]
AUC(0-inf) [19]: 2.1 µg·h/mL
AUC(0-inf) [20]: 1.76 µg·h/mL
AUC(0-inf) [21]: 1.24 µg·h/mL
